With O=C(OCC1c2ccccc2-c2ccccc21)ON1C(=O)CCC1=O the solubility (mole fraction) (in DMF, 283.15 K) was 0.00369, the solubility (mole fraction) (in DMF, 288.15 K) was 0.00533 and the solubility (mole fraction) (in DMF, 293.15 K) was 0.00719. The solubility (mole fraction) (in DMF, 298.15 K) was 0.00964, the solubility (mole fraction) (in DMF, 303.15 K) was 0.0132 and the solubility (mole fraction) (in DMF, 308.15 K) was 0.0177. The solubility (mole fraction) (in DMF, 313.15 K) was 0.023, the solubility (mole fraction) (in DMF, 318.15 K) was 0.0298 and the solubility (mole fraction) (in DMF, 323.15 K) was 0.0387. The solubility (mole fraction) (in DMF, 328.15 K) was 0.0499, the solubility (mole fraction) (in DMSO, 293.15 K) was 0.00499 and the solubility (mole fraction) (in DMSO, 298.15 K) was 0.00641. The solubility (mole fraction) (in DMSO, 303.15 K) was 0.0084, the solubility (mole fraction) (in DMSO, 308.15 K) was 0.0107 and the solubility (mole fraction) (in DMSO, 313.15 K) was 0.0134. For the same compound, the solubility (mole fraction) (in DMSO, 318.15 K) was 0.0167, the solubility (mole fraction) (in DMSO, 323.15 K) was 0.0208 and the solubility (mole fraction) (in DMSO, 328.15 K) was 0.0257. The solubility (mole fraction) (in ethanol, 283.15 K) was 0.000477, the solubility (mole fraction) (in ethanol, 288.15 K) was 0.000571 and the solubility (mole fraction) (in ethanol, 293.15 K) was 0.000687. The solubility (mole fraction) (in ethanol, 298.15 K) was 0.000824, the solubility (mole fraction) (in ethanol, 303.15 K) was 0.000979 and the solubility (mole fraction) (in ethanol, 308.15 K) was 0.00115. The solubility (mole fraction) (in ethanol, 313.15 K) was 0.00134, the solubility (mole fraction) (in ethanol, 318.15 K) was 0.00155 and the solubility (mole fraction) (in ethanol, 323.15 K) was 0.00177. It also gave a solubility (mole fraction) (in ethanol, 328.15 K) of 0.00205, a solubility (mole fraction) (in ethylene glycol, 283.15 K) of 0.000151 and a solubility (mole fraction) (in ethylene glycol, 288.15 K) of 0.00019. For the same compound, the solubility (mole fraction) (in ethylene glycol, 293.15 K) was 0.000241, the solubility (mole fraction) (in ethylene glycol, 298.15 K) was 0.000314 and the solubility (mole fraction) (in ethylene glycol, 303.15 K) was 0.000396. It also gave a solubility (mole fraction) (in ethylene glycol, 308.15 K) of 0.00049, a solubility (mole fraction) (in ethylene glycol, 313.15 K) of 0.000611 and a solubility (mole fraction) (in ethylene glycol, 318.15 K) of 0.000748. For the same compound, the solubility (mole fraction) (in ethylene glycol, 323.15 K) was 0.00092, the solubility (mole fraction) (in ethylene glycol, 328.15 K) was 0.00111 and the solubility (mole fraction) (in water, 293.15 K) was 5.77e-06. The solubility (mole fraction) (in water, 298.15 K) was 7.38e-06, the solubility (mole fraction) (in water, 303.15 K) was 9.44e-06 and the solubility (mole fraction) (in water, 308.15 K) was 1.19e-05. It also gave a solubility (mole fraction) (in water, 313.15 K) of 1.49e-05, a solubility (mole fraction) (in water, 318.15 K) of 1.84e-05 and a solubility (mole fraction) (in water, 323.15 K) of 2.28e-05. For the same compound, the solubility (mole fraction) (in water, 328.15 K) was 2.78e-05.
